Read-outs that look alike come from different tables or passages of the source. Starred links: 1 amine or outer side, 2 acyl side, 3 side chain; linkers in the order of their positions; H or OH if unused. Non-standard residues stand in square brackets, D forms with d. Residues, ends and D or L forms follow the SMILES beside them. Groups on a side chain read outwards from the residue. No end group written: not given here. *: point of attachment. C18 diacid = O=C(O)CCCCCCCCCCCCCCCCC(=O)*; αMePhe(2-F) = C[C@](N)(Cc1ccccc1F)C(=O)O; γGlu = O=C(O)[C@H](CCC(=O)[*:2])N[*:1]; αMe4Pal = C[C@](N)(Cc1ccncc1)C(=O)O; αMeY = C[C@](N)(Cc1ccc(O)cc1)C(=O)O; αMeF = C[C@](N)(Cc1ccccc1)C(=O)O; 4Pal = N[C@@H](Cc1ccncc1)C(=O)O; αMeL = CC(C)C[C@](C)(N)C(=O)O; αMeS = C[C@](N)(CO)C(=O)O; Orn = NCCC[C@H](N)C(=O)O; AEEA = NCCOCCOCC(=O)O; Aib = CC(C)(N)C(=O)O

Holding throughout (type): cell-based
Test [1] deals with T1, hGLP-1R (Homo sapiens, UniProt P43220). The test can be described thus: Functional cAMP activation in the presence of 0.1% casein (no HSA). The following applies: read-out: Relative cAMP EC50, hGLP-1R.
In test [2] the target is T2, hGIPR (Homo sapiens, UniProt P48546).
T2 sequence (P48546 22-466): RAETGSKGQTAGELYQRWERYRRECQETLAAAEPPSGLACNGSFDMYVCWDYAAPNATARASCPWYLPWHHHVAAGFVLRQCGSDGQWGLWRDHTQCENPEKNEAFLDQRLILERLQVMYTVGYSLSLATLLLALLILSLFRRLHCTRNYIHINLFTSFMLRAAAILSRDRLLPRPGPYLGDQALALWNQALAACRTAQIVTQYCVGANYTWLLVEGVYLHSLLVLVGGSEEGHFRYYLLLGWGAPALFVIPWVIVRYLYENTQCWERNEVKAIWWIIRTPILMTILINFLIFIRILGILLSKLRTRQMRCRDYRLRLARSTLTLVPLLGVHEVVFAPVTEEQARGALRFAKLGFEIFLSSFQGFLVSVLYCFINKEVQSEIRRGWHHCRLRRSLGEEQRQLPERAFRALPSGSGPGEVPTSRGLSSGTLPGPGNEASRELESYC
The test can be described thus: Functional cAMP activity in the presence of 1% HSA. The following applies: read-out: cAMP Rel EC50, hGIPR.

Test [3] concerns the target T2, hGIPR. The test can be described thus: Functional cAMP activation in the presence of 0.1% casein (no HSA). The conditions noted are these: read-out: Relative cAMP EC50, hGIPR.
For test [4], the target named is hGcgR (Homo sapiens, UniProt P47871). The description is as above. The following applies: read-out: Relative cAMP EC50, hGcgR.
The target of test [5] is human GcgR (Homo sapiens, UniProt P47871). As to the kind of experiment: Functional cAMP activity in the presence of 1% HSA. The following applies: read-out: cAMP Rel EC50, hGcgR.
Test [6] concerns the target T1, hGLP-1R. As to the kind of experiment: Functional cAMP activity in the presence of 1% HSA. The following applies: read-out: cAMP Rel EC50, hGLP-1R.
[7] abbreviates: in the presence of 0.1% casein (no HSA), geometric mean.
The mark [8] stands for this setting: 0.1% casein, no HSA, geometric mean.
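Throughout, for Relative cAMP EC50, hGIPR: intracellular cAMP rise after 30 min at 37 °C read by HTRF against a standard curve, scaled between buffer alone (0%) and top control ligand concentration (100%), four-parameter fit.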
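Throughout, for Relative cAMP EC50, hGLP-1R: intracellular cAMP rise after 30 min at 37 °C read by HTRF, normalized between buffer only (0%) and maximal control ligand (100%), four-parameter variable-slope fit.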
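Throughout, for Relative cAMP EC50, hGcgR: intracellular cAMP rise after 30 min at 37 °C, read by HTRF against a cAMP standard curve, scaled from buffer only (0%) to maximal control ligand response (100%).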

Chain of hGcgR (P47871 26-477): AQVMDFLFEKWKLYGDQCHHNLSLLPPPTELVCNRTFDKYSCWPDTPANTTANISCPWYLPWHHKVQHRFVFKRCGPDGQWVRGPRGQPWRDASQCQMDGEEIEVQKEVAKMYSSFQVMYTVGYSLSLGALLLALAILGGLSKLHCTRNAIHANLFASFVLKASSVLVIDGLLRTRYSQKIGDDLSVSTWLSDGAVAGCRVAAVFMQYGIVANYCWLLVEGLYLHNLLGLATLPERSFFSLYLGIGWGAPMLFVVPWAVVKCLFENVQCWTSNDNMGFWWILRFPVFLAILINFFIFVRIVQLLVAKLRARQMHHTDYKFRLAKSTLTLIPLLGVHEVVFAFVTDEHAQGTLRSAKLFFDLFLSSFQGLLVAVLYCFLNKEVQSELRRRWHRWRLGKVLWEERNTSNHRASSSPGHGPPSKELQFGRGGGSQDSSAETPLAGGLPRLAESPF
Chain of human GcgR (P47871 26-477): as above
T1 sequence (P43220 24-463): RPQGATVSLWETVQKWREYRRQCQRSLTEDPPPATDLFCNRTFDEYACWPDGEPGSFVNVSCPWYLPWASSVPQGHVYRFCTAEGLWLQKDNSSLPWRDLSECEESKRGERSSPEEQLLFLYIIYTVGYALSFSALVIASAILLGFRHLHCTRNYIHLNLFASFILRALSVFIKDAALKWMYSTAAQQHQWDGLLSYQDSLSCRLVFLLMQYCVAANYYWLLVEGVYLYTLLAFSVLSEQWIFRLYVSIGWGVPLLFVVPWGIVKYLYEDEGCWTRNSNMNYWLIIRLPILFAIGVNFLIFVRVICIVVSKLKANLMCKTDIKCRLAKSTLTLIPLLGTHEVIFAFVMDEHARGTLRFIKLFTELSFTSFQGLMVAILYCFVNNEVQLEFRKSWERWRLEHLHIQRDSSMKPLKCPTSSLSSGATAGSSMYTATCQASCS

Consider “H-Y[Aib]QGT[αMeF]TSD[4Pal][αMeS]I[αMeL]LD[Orn]K([AEEA-γGlu-C18 diacid])AQ[αMe4Pal]EFI[dE][αMeY]LIEGGPSSGAPPPSGE-NH2 [Example 1164]”, for which the EC50 (usually the concentration giving half of the maximal effect) in test [1] (setting [7]) was found to be 0.495 nM; in test [2], 1.17 nM; in test [3] (setting [7]) it was 0.0104 nM; in test [4] (setting [7]), 2.83 nM; in test [5], 359 nM; in test [6] it was 63.5 nM.

In the case of “H-Y[Aib]QGTFTSD[4Pal]SQ[αMeL]LDKK([γGlu-γGlu-C18 diacid])AQ[αMe4Pal]AFIEYLIE[Aib]GPSSGAPPPSGSE-NH2 [Example 890]”, the EC50 turned out to be 3.19 nM in test [1] (setting [7]); 14.2 nM in test [2]; 0.113 nM in test [3] (setting [7]); 4.73 nM in test [4] (setting [7]); 559 nM in test [5]; 290 nM in test [6].

For “H-Y[Aib]QGT[αMePhe(2-F)]TSDYSK[αMeL]LDKK([AEEA-γGlu-C18 diacid])AQ[Aib]QFIEYLEEGGPSSGEPPPSEG-NH2 [Example 292]”, the EC50 in test [1] (setting [7]) was found to be 1.03 nM; in test [2] (HEK-293 clonal cells expressing hGIPR, in the presence of 1% HSA, geometric mean of relative EC50), 92.7 nM; in test [3] (setting [7]), 1.02 nM; in test [4] (setting [7]), 1.84 nM; in test [5] (HEK-293 clonal cells expressing hGcgR, in the presence of 1% HSA, geometric mean of relative EC50) it was 583 nM; in test [6] (HEK-293 clonal cells expressing hGLP-1R, in the presence of 1% HSA, geometric mean of relative EC50), 129 nM.

Turning to `CC[C@H](C)[C@H](NC(=O)[C@H](CCCCN)NC(=O)[C@H](CC(=O)O)NC(=O)[C@H](CC(C)C)NC(=O)[C@H](CC(C)C)NC(=O)[C@@H](NC(=O)[C@H](CO)NC(=O)[C@H](Cc1ccc(O)cc1)NC(=O)[C@H](CC(=O)O)NC(=O)[C@H](CO)NC(=O)[C@@H](NC(=O)[C@](C)(Cc1ccccc1F)NC(=O)[C@@H](NC(=O)CNC(=O)[C@H](CCC(N)=O)NC(=O)C(C)(C)NC(=O)[C@@H](N)Cc1ccc(O)cc1)[C@@H](C)O)[C@@H](C)O)[C@@H](C)CC)C(=O)N[C@@H](C)C(=O)N[C@@H](CCC(N)=O)C(=O)NC(C)(C)C(=O)N[C@@H](C)C(=O)N[C@@H](Cc1ccccc1)C(=O)N[C@H](C(=O)N[C@@H](CCCCNC(=O)COCCOCCNC(=O)CC[C@H](NC(=O)CCCCCCCCCCCCCCCCC(=O)O)C(=O)O)C(=O)N[C@@H](Cc1ccc(O)cc1)C(=O)N[C@@H](CC(C)C)C(=O)N[C@@H](CCC(=O)O)C(=O)N[C@@H](CCC(=O)O)C(=O)NCC(=O)NCC(=O)N1CCC[C@H]1C(=O)N[C@@H](CO)C(=O)N[C@@H](CO)C(=O)NCC(=O)N[C@@H](C)C(=O)N1CCC[C@H]1C(=O)N1CCC[C@H]1C(=O)N1CCC[C@H]1C(=O)N[C@@H](CO)C(N)=O)[C@@H](C)CC` [Example 430] (H-Y[Aib]QGT[αMePhe(2-F)]TSDYSILLDKIAQ[Aib]AFIK([AEEA-γGlu-C18 diacid])YLEEGGPSSGAPPPS-NH2; N-terminus assumed), the EC50 was 0.438 nM in test [1]; 4.65 nM in test [2]; 0.0144 nM in test [3]; 2.11 nM in test [4]; 559 nM in test [5]; 78.9 nM in test [6].

As to “H-Y[Aib]QGTFTSD[4Pal]S[Orn][αMeL]LD[Orn]K([γGlu-γGlu-C18 diacid])AQ[αMe4Pal]AFIE[αMe4Pal]LIE[Aib]GPSSGEPPPSGS-NH2 [Example 991]”, the EC50 came to 3.91 nM in test [1] (setting [7]); 14.8 nM in test [2]; 0.119 nM in test [3] (setting [7]); 3.03 nM in test [4] (setting [7]); 405 nM in test [5]; 315 nM in test [6].

As for “H-Y[Aib]QGTFTSD[4Pal]S[Orn][αMeL]LDKK([AEEA-γGlu-C18 diacid])AQ[αMe4Pal]AFIE[αMe4Pal]LIEGGPSSGAPPPSGSEE-NH2 [Example 955]”, the EC50 in test [1] (setting [7]) is 7.74 nM; in test [2], 42.3 nM; in test [3] (setting [7]), 0.386 nM; in test [4] (setting [7]), 2.65 nM; in test [5] it was 366 nM; in test [6] it was 1380 nM.

As to “H-Y[Aib]QGT[αMePhe(2-F)]TSD[4Pal][αMeS]I[αMeL]LD[Orn]K([AEEA-γGlu-C18 diacid])AQ[αMe4Pal]EFI[dE][αMeY]LIEGGPSSGEPPPEGGGE-NH2 [Example 760]”, the EC50 in test [1] was 0.395 nM; in test [2], 1.29 nM; in test [3] it was 0.00722 nM; in test [4] it was 1.59 nM; in test [5], 239 nM; in test [6], 43.6 nM.

`CC[C@H](C)[C@H](NC(=O)[C@H](Cc1ccccc1)NC(=O)[C@H](C)NC(=O)C(C)(C)NC(=O)[C@H](CCC(N)=O)NC(=O)[C@H](C)NC(=O)[C@H](CCCCNC(=O)CC[C@H](NC(=O)CC[C@H](NC(=O)CCCCCCCCCCCCCCCCC(=O)O)C(=O)O)C(=O)O)NC(=O)[C@H](CCCN)NC(=O)[C@H](CC(=O)O)NC(=O)[C@H](CC(C)C)NC(=O)[C@](C)(CC(C)C)NC(=O)[C@@H](NC(=O)[C@H](CO)NC(=O)[C@H](Cc1ccncc1)NC(=O)[C@H](CC(=O)O)NC(=O)[C@H](CO)NC(=O)[C@@H](NC(=O)[C@](C)(Cc1ccccc1F)NC(=O)[C@@H](NC(=O)CNC(=O)[C@H](CCC(N)=O)NC(=O)C(C)(C)NC(=O)[C@@H](N)Cc1ccc(O)cc1)[C@@H](C)O)[C@@H](C)O)[C@@H](C)CC)C(=O)N[C@@H](CCC(=O)O)C(=O)N[C@@H](Cc1ccc(O)cc1)C(=O)N[C@@H](CC(C)C)C(=O)N[C@@H](CCC(=O)O)C(=O)N[C@@H](CCC(=O)O)C(=O)NCC(=O)NCC(=O)N1CCC[C@H]1C(=O)N[C@@H](CO)C(=O)N[C@@H](CO)C(=O)NCC(=O)N[C@@H](C)C(=O)N1CCC[C@H]1C(=O)N1CCC[C@H]1C(=O)N1CCC[C@H]1C(=O)N[C@@H](CO)C(N)=O` [Example 441] (H-Y[Aib]QGT[αMePhe(2-F)]TSD[4Pal]SI[αMeL]LD[Orn]K([γGlu-γGlu-C18 diacid])AQ[Aib]AFIEYLEEGGPSSGAPPPS-NH2): the EC50 in test [1] turned out to be 0.365 nM; in test [2] it was 1.96 nM; in test [3], 0.0239 nM; in test [4], 8 nM; in test [5], 855 nM; in test [6], 24.7 nM.

In the case of “H-Y[Aib]QGT[αMePhe(2-F)]TSD[4Pal][αMeS]I[αMeL]LD[Orn]K([AEEA-γGlu-C18 diacid])AA[Aib]EFI[dE][αMeY]LIEGGPSSGEPPPSGGGE-NH2 [Example 746]”, the EC50 in test [1] amounted to 0.261 nM; in test [2] it was 1.44 nM; in test [3], 0.0119 nM; in test [4] it was 1.62 nM; in test [5], 255 nM; in test [6] it was 38.6 nM.

“Y[Aib]QGT[αMePhe(2-F)]TSD[4Pal][αMeS]I[αMeL]LD[Orn]K([AEEA-γGlu-C18 diacid])AQ[αMe4Pal]EFI[dE][αMeY]LIEGGPPS[Aib]EPPP[Orn]GE-NH2 [Example 1193]”: the EC50 in test [1] (setting [8]) is 0.544 nM; in test [2], 0.803 nM; in test [3] (setting [8]) it was 0.00897 nM; in test [4] (setting [8]), 1.56 nM; in test [5] it was 202 nM; in test [6] it was 66.2 nM.

For “H-Y[Aib]QGT[αMePhe(2-F)]TSD[4Pal]SI[αMeL]LD[Orn]K([AEEA-γGlu-C18 diacid])AQ[Aib][Orn]FIEYLLEGGPSSGEPPPEEG-NH2 [Example 494]”, the EC50 was determined as 0.211 nM in test [1]; 1.08 nM in test [2]; 0.014 nM in test [3]; 1.26 nM in test [4]; 333 nM in test [5]; 19.9 nM in test [6].

The values above are taken from patent publication US20240270821A1, “GIP/GLP1/GCG TRI-RECEPTOR AGONISTS AND USES THEREOF” (priority 2023, published 2024).
